{"source": "patent US20250186463A1", "about": "“ABIRATERONE DECANOATE PRODRUGS AND USE IN THERAPY” (PROPELLA THERAPEUTICS, INC., priority 2022, published 2025)", "key": {"[1]": {"test_system": "serum DHEA-S, DHEA, androstenedione", "assay": "Phase 1/2a study: serum DHEA-S, DHEA, androstenedione", "format": "in vivo, human", "source_text": "(§1) Pharmacodynamic Analysis: Determination of Prostate Specific Antigen (PSA), serum testosterone, dehydroepiandrosterone (DHEA), dehydroepiandrosterone sulfate (DHEA-S), androstenedione, dihydrotestosterone (DHT), progesterone, cortisol, adrenocorticotropic hormone (ACTH), corticosterone, 11-dexoycorticosterone (11-DOC) and 11-deoxycortisol."}, "[2]": {"test_system": "Prostate Specific Antigen (PSA)", "assay": "Phase 1/2a study: PSA response", "format": "in vivo, human", "conditions": "for Undetectable PSA: defined as PSA < 0.2 ng/mL", "protocol": "This is a Phase 1/2a, Open-label, Multicenter Study of Intramuscular Abiraterone Decanoate Depot in Patients with Advanced Prostate Cancer.\nFormulations and dosing regimen: The formulation used in the study (abiraterone decanoate for intramuscular [i.m.] injection) is a solution formulation of abiraterone decanoate at a concentration of 180 mg/mL and will be provided as a 10 mL vial containing 990 mg of abiraterone decanoate in 5.5 mL of solution. See further details of the formulations in Example 2 (for each milliliter: Abiraterone Decanoate, about 180 mg/mL; Benzyl Alcohol, about 100 mg/mL; Benzyl Benzoate, about 200 mg/mL; and Corn oil, q.s. to 1 mL). Abiraterone Decanoate will be administered as an i.m. injection every 84 days (±3 days). Dose escalation will proceed with a modified Fibonacci sequence. Based on emerging data, intermediate doses may be evaluated.\nStudy Design: This is a Phase 1/2a, Open-label, Multicenter Study of Intramuscular Abiraterone Decanoate Depot in Patients with Advanced Prostate Cancer. In Phase 1, all patients will receive i.m. Abiraterone Decanoate depot in 84-day treatment cycles combined with daily oral prednisone or dexamethasone. In Phase 2a, patients will be randomized 1:1 and treated with i.m. Abiraterone Decanoate depot in 84-day treatment cycles in combination with dexamethasone (Arm A) or abiraterone acetate daily+prednisone (Arm B). In both Phases, patients will undergo scheduled periodic assessments of serum testosterone levels. Participants may continue treatment until they meet any discontinuation criteria outlined in the protocol.\nas §1\nBased on the available data, the recommended dose for Phase 2 is about 1260 mg abiraterone decanoate once every three months (12 weeks). All cohorts 1 and 2 in this clinical study were treated with prednisone, 5 mg orally once or twice daily; and all cohorts 3-5 were treated with dexamethasone, 0.5 mg orally once daily. The results shown herein for these cohorts should be understood accordingly.\nPSA Levels: the median baseline PSA level was 3.01 ng/mL. […] The table below further summarizes the reduction of PSA observed without elevated progesterone level."}}}
{"smiles": "CCCCCCCCCC(=O)O[C@H]1CC[C@@]2(C)C(=CC[C@@H]3[C@@H]2CC[C@]2(C)C(c4cccnc4)=CC[C@@H]32)C1", "note": "[abiraterone decanoate]", "values": [{"measurement": "serum DHEA-S level vs baseline", "setting": "[1]; cohorts 1-5, FIG. 3B", "result": "significantly reduced"}, {"measurement": "serum DHEA level vs baseline", "setting": "[1]; cohorts 1-5, FIG. 3C", "result": "significantly reduced"}, {"measurement": "serum androstenedione level vs baseline", "setting": "[1]; cohorts 1-5, FIG. 3D", "result": "significantly reduced"}, {"measurement": "percentages of patients achieving PSA50 and 90 versus those reported for abiraterone acetate (AA) and enzalutamide (Enza)", "setting": "[2]; Chemo-naïve CRPC, FIGS. 9A and 9B", "result": "much higher"}, {"measurement": "PSA at follow-up", "setting": "[2]; Patient 1, 180 mg, CSPC, enzalutamide started after study", "result": "below LLOQ"}, {"measurement": "patients with PSA50", "setting": "[2]; cohorts 3, 4, and 5", "result": "15 out of 16"}, {"measurement": "patients with PSA90", "setting": "[2]; cohorts 3, 4, and 5", "result": "8 out of 16"}, {"measurement": "Best PSA Response", "setting": "[2]; patient 02-1403, Cohort 4, 1260 mg, mCRPC, Visit C4D28", "result": "−98", "unit": "%"}, {"measurement": "Undetectable PSA", "setting": "[2]; patient 02-1403, Cohort 4, 1260 mg, mCRPC", "result": "No"}, {"measurement": "Best PSA Response", "setting": "[2]; patient 02-1405, Cohort 4, 1260 mg, mCRPC, Visit C1D56", "result": "−94", "unit": "%"}, {"measurement": "Undetectable PSA", "setting": "[2]; patient 02-1405, Cohort 4, 1260 mg, mCRPC", "result": "No"}, {"measurement": "Best PSA Response", "setting": "[2]; patient 02-1504, Cohort 5, 1800 mg, mCRPC, Visit C1D28", "result": "−92.4"}, {"measurement": "Undetectable PSA", "setting": "[2]; patient 02-1504, Cohort 5, 1800 mg, mCRPC", "result": "No"}, {"measurement": "Best PSA Response", "setting": "[2]; patient 02-1505, Cohort 5, 1800 mg, mCSPC, Visit C1D84", "result": "−98", "unit": "%"}, {"measurement": "Undetectable PSA", "setting": "[2]; patient 02-1505, Cohort 5, 1800 mg, mCSPC", "result": "No"}, {"measurement": "Best PSA Response", "setting": "[2]; patient 04-1406, Cohort 4, 1260 mg, mCSPC, Visit C1D56", "result": "−82", "unit": "%"}, {"measurement": "Undetectable PSA", "setting": "[2]; patient 04-1406, Cohort 4, 1260 mg, mCSPC", "result": "No"}, {"measurement": "Best PSA Response", "setting": "[2]; patient 04-1503, Cohort 5, 1800 mg, mCSPC, Visit C1D84", "result": "−67", "unit": "%"}, {"measurement": "Undetectable PSA", "setting": "[2]; patient 04-1503, Cohort 5, 1800 mg, mCSPC", "result": "Yes"}, {"measurement": "Best PSA Response", "setting": "[2]; patient 04-1506, Cohort 5, 1800 mg, mCRPC, Visit C1D28", "result": "−54", "unit": "%"}, {"measurement": "Undetectable PSA", "setting": "[2]; patient 04-1506, Cohort 5, 1800 mg, mCRPC", "result": "No"}, {"measurement": "Best PSA Response", "setting": "[2]; patient 06-1401, Cohort 4, 1260 mg, mCRPC, Visit C3D84", "result": "−99.97", "unit": "%"}, {"measurement": "Undetectable PSA", "setting": "[2]; patient 06-1401, Cohort 4, 1260 mg, mCRPC", "result": "Yes"}, {"measurement": "Best PSA Response", "setting": "[2]; patient 06-1402, Cohort 4, 1260 mg, mCRPC, Visit C4D28", "result": "−93", "unit": "%"}, {"measurement": "Undetectable PSA", "setting": "[2]; patient 06-1402, Cohort 4, 1260 mg, mCRPC", "result": "No"}, {"measurement": "Best PSA Response", "setting": "[2]; patient 06-1404, Cohort 4, 1260 mg, mCSPC, Visit C2D84", "result": "−67", "unit": "%"}, {"measurement": "Undetectable PSA", "setting": "[2]; patient 06-1404, Cohort 4, 1260 mg, mCSPC", "result": "Yes"}, {"measurement": "Best PSA Response", "setting": "[2]; patient 06-1501, Cohort 5, 1800 mg, mCRPC, Visit C1D84", "result": 48, "unit": "%"}, {"measurement": "Undetectable PSA", "setting": "[2]; patient 06-1501, Cohort 5, 1800 mg, mCRPC", "result": "No"}, {"measurement": "Best PSA Response", "setting": "[2]; patient 06-1502, Cohort 5, 1800 mg, mCSPC, Visit C2D84", "result": "−99.6", "unit": "%^"}, {"measurement": "Undetectable PSA", "setting": "[2]; patient 06-1502, Cohort 5, 1800 mg, mCSPC", "result": "Yes"}]}
